# Values of other authors in US20030181473A1, “Farnesyl protein transferase inhibitor combinations with taxane compounds” (priority 2000, published 2003).
# How the values were obtained:
# human tumor cells = conditions: combination of paclitaxel and the farnesyl transferase inhibitor, in vitro
# colon cancer (LoVo) = conditions: combination of paclitaxel and the farnesyl transferase inhibitor; mouse colon cancer (LoVo) model
compound,measurement,setting,value
"Cn1cncc1C(N)(c1ccc(Cl)cc1)c1ccc2c(c1)c(-c1cccc(Cl)c1)cc(=O)n2C (single isomer, unassigned; (+)) [(+)-6-[amino(4-chlorophenyl)(1-methyl-1H-imidazol-5-yl)methyl]-4-(3-chlorophenyl)-1-methyl-2(1H)-quinolinone]",anti-tumor effect of the combination,human tumor cells,additive anti-tumor effect
same,anti-tumor effect of the combination,colon cancer (LoVo),additive anti-tumor effect
